Experimental data reported in PubChem BioAssay AID330 (DTP/NCI, 2004).
Where “and” joins values, the source holds several entries; their conditions need not be identical. Equal values may be shown once. Toxic doses and inconclusive results are not listed.

Test system: P388 leukemia ip, CD2F1 mice, survival T/C
Test: NCI In Vivo Anticancer Drug Screen. Data for tumor model P388 Leukemia (intraperitoneal) in CD2F1 (CDF1) mice
Details: endpoint: median survival time, higher = longer survival
How it was run: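 Mice carrying the transplanted tumor received test compound or vehicle. Survival was recorded in each group, and the value is the treated-group measurement divided by that of the vehicle-treated control group.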

[1] = dose: 25.0 mg/kg/injection, schedule: Q01DX009 (ip), vehicle: saline with Tween-80
[2] = dose: 50.0 mg/kg/injection, schedule: Q01DX009 (ip), vehicle: saline with Tween-80
[3] = dose: 100.0 mg/kg/injection, schedule: Q01DX009 (ip), vehicle: saline with Tween-80
[4] = dose: 200.0 mg/kg/injection, schedule: Q01DX009 (ip), vehicle: saline with Tween-80
[5] = dose: 12.5 mg/kg/injection, schedule: Q01DX009 (ip), vehicle: Klucel (hydroxypropylcellulose) (HPC)
[6] = dose: 25.0 mg/kg/injection, schedule: Q01DX009 (ip), vehicle: Klucel (hydroxypropylcellulose) (HPC)
[7] = dose: 50.0 mg/kg/injection, schedule: Q01DX009 (ip), vehicle: Klucel (hydroxypropylcellulose) (HPC)
[8] = dose: 100.0 mg/kg/injection, schedule: Q01DX009 (ip), vehicle: Klucel (hydroxypropylcellulose) (HPC)
[9] = dose: 200.0 mg/kg/injection, schedule: Q01DX009 (ip), vehicle: Klucel (hydroxypropylcellulose) (HPC)
[10] = dose: 50.0 mg/kg/injection, schedule: Q01DX005 (ip), vehicle: Klucel (hydroxypropylcellulose) (HPC)
[11] = dose: 100.0 mg/kg/injection, schedule: Q01DX005 (ip), vehicle: Klucel (hydroxypropylcellulose) (HPC)
[12] = dose: 200.0 mg/kg/injection, schedule: Q01DX005 (ip), vehicle: Klucel (hydroxypropylcellulose) (HPC)
[13] = dose: 6.25 mg/kg/injection, schedule: Q01DX009 (ip), vehicle: Klucel (hydroxypropylcellulose) (HPC)
[14] = dose: 60.0 mg/kg/injection, schedule: Q01DX005 (ip), vehicle: saline with Tween-80
[15] = dose: 120.0 mg/kg/injection, schedule: Q01DX005 (ip), vehicle: saline with Tween-80
[16] = dose: 240.0 mg/kg/injection, schedule: Q01DX005 (ip), vehicle: saline with Tween-80
[17] = dose: 50.0 mg/kg/injection, schedule: Q01DX005 (ip), vehicle: saline with Tween-80
[18] = dose: 100.0 mg/kg/injection, schedule: Q01DX005 (ip), vehicle: saline with Tween-80
[19] = dose: 200.0 mg/kg/injection, schedule: Q01DX005 (ip), vehicle: saline with Tween-80

SMILES: COC(=S)NC(=O)c1ccc(Cl)c(Cl)c1
- T/C [1]: 108 % of control
- T/C [2]: 107 % of control
- T/C [3]: 99 % of control
- T/C [4]: 110 % of control

SMILES: O=c1/c(=C/c2ccccc2)sc2nc(-c3ccccc3)nn12
- T/C [5]: 87 % of control
- T/C [6]: 88 % of control
- T/C [7]: 89 % of control and 91 % of control
- T/C [8]: 107 % of control
- T/C [9]: 107 % of control

SMILES: CC(C)(C)CC(C)(C)c1ccc(OCc2cccc(Cl)c2)cc1
- T/C [2]: 97 % of control
- T/C [3]: 96 % of control
- T/C [4]: 95 % of control

SMILES: COc1cc(O)c(CC=C(C)C)cc1O
- T/C [10]: 105 % of control
- T/C [11]: 101 % of control

SMILES: CC(C)C/C=N/N(C)C=O
- T/C (dose: 100.0 mg/kg/injection, schedule: Q04DX002 (ip), vehicle: saline): 100 % of control
- T/C (dose: 200.0 mg/kg/injection, schedule: Q04DX002 (ip), vehicle: saline): 100 % of control
- T/C (dose: 400.0 mg/kg/injection, schedule: Q04DX002 (ip), vehicle: saline): 103 % of control

SMILES: COC(=O)c1cc(=O)n(C)[nH]1
- T/C [10]: 104 % of control
- T/C [11]: 105 % of control
- T/C [12]: 98 % of control

SMILES: C/C(=N\NC(=S)SCc1ccccc1)c1ccccn1
- T/C (dose: 3.12 mg/kg/injection, schedule: Q01DX009 (ip), vehicle: Klucel (hydroxypropylcellulose) (HPC)): 108 % of control
- T/C [13]: 103 % of control and 110 % of control

SMILES: Cc1ccc(CN2CCN(Cc3ccc(C)o3)C(C)C2)o1 (stereo not given)
- T/C (dose: 50.0 mg/kg/injection, schedule: Q01DX005 (ip), vehicle: saline): 101 % of control
- T/C (dose: 100.0 mg/kg/injection, schedule: Q01DX005 (ip), vehicle: saline): 101 % of control
- T/C (dose: 200.0 mg/kg/injection, schedule: Q01DX005 (ip), vehicle: saline): 100 % of control

SMILES: CC1=C(/C=C/C(C)=C/C=C/C(C)=C/C=C/C=C(C)/C=C/C=C(C)/C=C/C2=C(C)C(=O)CCC2(C)C)C(C)(C)CCC1=O
- T/C [14]: 98 % of control
- T/C [15]: 88 % of control
- T/C [16]: 91 % of control

SMILES: O=c1c(O)c(-c2cc(O)c(O)c(O)c2)oc2cc(O)cc(O)c12
- T/C [13]: 105 % of control
- T/C [5]: 112 % of control
- T/C [6]: 124 % of control
- T/C (dose: 100.0 mg/kg/injection, schedule: Q01DX009 (ip), vehicle: other): 89 % of control
- T/C (dose: 200.0 mg/kg/injection, schedule: Q01DX009 (ip), vehicle: other): 98 % of control

SMILES: CC1(C)OC(=O)C=C1Sc1ccccc1
- T/C [17]: 100 % of control
- T/C [18]: 105 % of control
- T/C [19]: 105 % of control

SMILES: NS(=O)(=O)c1ccc(NCc2cnc3ccccc3c2)cc1
- T/C (dose: 5.0 mg/kg/injection, schedule: Q01DX009 (ip), vehicle: saline): 94 % of control
- T/C (dose: 10.0 mg/kg/injection, schedule: Q01DX009 (ip), vehicle: saline): 88 % of control
- T/C (dose: 20.0 mg/kg/injection, schedule: Q01DX009 (ip), vehicle: saline): 98 % of control

SMILES: COc1cc2c(cc1OC)C1CC(=O)C(CCCCCCC3CN4CCc5cc(OC)c(OC)cc5C4CC3=O)CN1CC2 (stereo not given)
- T/C [7]: 91 % of control
- T/C [8]: 92 % of control
- T/C [9]: 99 % of control

SMILES: COc1ccc(C=Nc2ccccc2)cc1
- T/C [3]: 100 % of control
- T/C [4]: 118 % of control
- T/C (dose: 400.0 mg/kg/injection, schedule: Q01DX009 (ip), vehicle: saline with Tween-80): 118 % of control

SMILES: CCn1c2ccccc2c2cc(N=Nc3ccnc4c(O)cccc34)ccc21
- T/C (dose: 12.5 mg/kg/injection, schedule: Q01DX009 (ip), vehicle: saline with Tween-80): 119 % of control
- T/C [1]: 117 % of control
- T/C [3]: 108 % of control and 97 % of control

SMILES: CN(C)c1ccc2nc3c(C(=O)O)cc(=O)c(O)c-3oc2c1
- T/C [10]: 103 % of control
- T/C [11]: 108 % of control

SMILES: CCOC(=O)C1=C(c2ccco2)NN=C(c2ccccc2)C1
- T/C [17]: 101 % of control
- T/C [18]: 103 % of control
- T/C [19]: 94 % of control

SMILES: c1ccc2c(SCCCSc3c4ccccc4nc4ccccc34)c3ccccc3nc2c1
- T/C (dose: 60.0 mg/kg/injection, schedule: Q01DX005 (ip), vehicle: Klucel (hydroxypropylcellulose) (HPC)): 97 % of control
- T/C (dose: 120.0 mg/kg/injection, schedule: Q01DX005 (ip), vehicle: Klucel (hydroxypropylcellulose) (HPC)): 91 % of control
- T/C (dose: 240.0 mg/kg/injection, schedule: Q01DX005 (ip), vehicle: Klucel (hydroxypropylcellulose) (HPC)): 95 % of control

SMILES: CCN1C[C@@]2(C)CCC(OC)C34[C@H]2[C@@H](OC(C)=O)C2(OCO[C@]25C[C@@H](OC)C2C[C@@]3(O)[C@H]5C2O)[C@@H]14 (stereo not given in full)
- T/C (dose: 4.0 mg/kg/injection, schedule: Q01DX005 (ip), vehicle: saline with Tween-80): 100 % of control
- T/C (dose: 8.0 mg/kg/injection, schedule: Q01DX005 (ip), vehicle: saline with Tween-80): 99 % of control
- T/C (dose: 16.0 mg/kg/injection, schedule: Q01DX005 (ip), vehicle: saline with Tween-80): 97 % of control
- T/C (dose: 32.0 mg/kg/injection, schedule: Q01DX005 (ip), vehicle: saline with Tween-80): 107 % of control
- T/C (dose: 64.0 mg/kg/injection, schedule: Q01DX005 (ip), vehicle: saline with Tween-80): 108 % of control

SMILES: CN1C(=O)NC(=O)C(=C2C=C(c3ccccc3)C(C#N)(c3ccccc3)C(c3ccccc3)=C2)C1=O (stereo not given)
- T/C [10]: 97 % of control
- T/C [11]: 97 % of control
- T/C [12]: 101 % of control

SMILES: CCOC1N(c2ccc(Cl)cc2)CN(C)CC1(C)C (stereo not given)
- T/C [2]: 117 % of control
- T/C [3]: 120 % of control

SMILES: COc1cccc(/C=C/S(=O)(=O)Cc2ccccc2)c1OC
- T/C [17]: 93 % of control
- T/C [18]: 100 % of control
- T/C [19]: 91 % of control

SMILES: c1ccc2c(c1)ccc1c3ccccc3sc21
- T/C [10]: 101 % of control
- T/C [11]: 110 % of control
- T/C [12]: 103 % of control

SMILES: CCCCCCCCCCCCCCCCCN1CCS(=O)(=O)CC1
- T/C [7]: 100 % of control
- T/C [8]: 94 % of control
- T/C [9]: 88 % of control

SMILES: COC1=C[C@@H](C)[C@@H]2C[C@H]3O[C@@H](OC4OC(CO)C(O)C(O)C4O)C[C@H]4C(C)=C(OC)C(=O)[C@H]([C@@]2(C)C1=O)[C@@]34C (stereo not given in full)
- T/C (dose: 4.0 mg/kg/injection, schedule: Q01DX005 (ip), vehicle: Klucel (hydroxypropylcellulose) (HPC)): 96 % of control
- T/C (dose: 8.0 mg/kg/injection, schedule: Q01DX005 (ip), vehicle: Klucel (hydroxypropylcellulose) (HPC)): 94 % of control
- T/C (dose: 16.0 mg/kg/injection, schedule: Q01DX005 (ip), vehicle: Klucel (hydroxypropylcellulose) (HPC)): 103 % of control

SMILES: CCc1nc(N)nc(N)c1-c1ccc(OC)c(N)c1
- T/C [17]: 102 % of control and 116 % of control
- T/C [18]: 112 % of control
- T/C [19]: 119 % of control

SMILES: CCOC(=O)c1ccc(NC(=O)Nc2nn[nH]n2)cc1
- T/C (dose: 25.0 mg/kg/injection, schedule: Q01DX009 (ip), vehicle: distilled water + Tween-80): 105 % of control
- T/C (dose: 50.0 mg/kg/injection, schedule: Q01DX009 (ip), vehicle: distilled water + Tween-80): 115 % of control
- T/C (dose: 100.0 mg/kg/injection, schedule: Q01DX009 (ip), vehicle: distilled water + Tween-80): 108 % of control
- T/C (dose: 200.0 mg/kg/injection, schedule: Q01DX009 (ip), vehicle: distilled water + Tween-80): 100 % of control
- T/C (dose: 400.0 mg/kg/injection, schedule: Q01DX009 (ip), vehicle: distilled water + Tween-80): 108 % of control

SMILES: O=C(O)c1ccc(NC(=O)c2ccco2)cc1
- T/C [2]: 88 % of control
- T/C [3]: 97 % of control
- T/C [4]: 89 % of control

SMILES: COc1nc2c(c(=O)n1C)C(=O)CN2C1OC(COC(C)=O)C(OC(C)=O)C(OC(C)=O)C1OC(C)=O (stereo not given)
- T/C [17]: 103 % of control
- T/C [18]: 108 % of control
- T/C [19]: 103 % of control

SMILES: N#Cc1ccc(C(=O)C=[N+]=[N-])cc1
- T/C (dose: 100.0 mg/kg/injection, schedule: Q04DX003 (ip), vehicle: Klucel (hydroxypropylcellulose) (HPC)): 109 % of control
- T/C (dose: 200.0 mg/kg/injection, schedule: Q04DX003 (ip), vehicle: Klucel (hydroxypropylcellulose) (HPC)): 93 % of control
- T/C (dose: 400.0 mg/kg/injection, schedule: Q04DX003 (ip), vehicle: Klucel (hydroxypropylcellulose) (HPC)): 100 % of control

SMILES: CC([NH-])C[NH-].O=[N+]([O-])O.O=[N+]([O-])O.[Pt+2] (stereo not given)
- T/C (dose: 6.25 mg/kg/injection, schedule: Q04DX002 (ip), vehicle: saline): 153 % of control
- T/C (dose: 12.5 mg/kg/injection, schedule: Q04DX002 (ip), vehicle: saline): 100 % of control and 98 % of control

SMILES: O=C(C(=O)c1cccc(C(=O)C(=O)c2ccccc2)c1)c1ccccc1
- T/C [14]: 104 % of control
- T/C [15]: 96 % of control
- T/C [16]: 92 % of control
